Target: T1, EHMT1 (Homo sapiens, UniProt Q9H9B1)
T1 sequence (Q9H9B1 1-1298): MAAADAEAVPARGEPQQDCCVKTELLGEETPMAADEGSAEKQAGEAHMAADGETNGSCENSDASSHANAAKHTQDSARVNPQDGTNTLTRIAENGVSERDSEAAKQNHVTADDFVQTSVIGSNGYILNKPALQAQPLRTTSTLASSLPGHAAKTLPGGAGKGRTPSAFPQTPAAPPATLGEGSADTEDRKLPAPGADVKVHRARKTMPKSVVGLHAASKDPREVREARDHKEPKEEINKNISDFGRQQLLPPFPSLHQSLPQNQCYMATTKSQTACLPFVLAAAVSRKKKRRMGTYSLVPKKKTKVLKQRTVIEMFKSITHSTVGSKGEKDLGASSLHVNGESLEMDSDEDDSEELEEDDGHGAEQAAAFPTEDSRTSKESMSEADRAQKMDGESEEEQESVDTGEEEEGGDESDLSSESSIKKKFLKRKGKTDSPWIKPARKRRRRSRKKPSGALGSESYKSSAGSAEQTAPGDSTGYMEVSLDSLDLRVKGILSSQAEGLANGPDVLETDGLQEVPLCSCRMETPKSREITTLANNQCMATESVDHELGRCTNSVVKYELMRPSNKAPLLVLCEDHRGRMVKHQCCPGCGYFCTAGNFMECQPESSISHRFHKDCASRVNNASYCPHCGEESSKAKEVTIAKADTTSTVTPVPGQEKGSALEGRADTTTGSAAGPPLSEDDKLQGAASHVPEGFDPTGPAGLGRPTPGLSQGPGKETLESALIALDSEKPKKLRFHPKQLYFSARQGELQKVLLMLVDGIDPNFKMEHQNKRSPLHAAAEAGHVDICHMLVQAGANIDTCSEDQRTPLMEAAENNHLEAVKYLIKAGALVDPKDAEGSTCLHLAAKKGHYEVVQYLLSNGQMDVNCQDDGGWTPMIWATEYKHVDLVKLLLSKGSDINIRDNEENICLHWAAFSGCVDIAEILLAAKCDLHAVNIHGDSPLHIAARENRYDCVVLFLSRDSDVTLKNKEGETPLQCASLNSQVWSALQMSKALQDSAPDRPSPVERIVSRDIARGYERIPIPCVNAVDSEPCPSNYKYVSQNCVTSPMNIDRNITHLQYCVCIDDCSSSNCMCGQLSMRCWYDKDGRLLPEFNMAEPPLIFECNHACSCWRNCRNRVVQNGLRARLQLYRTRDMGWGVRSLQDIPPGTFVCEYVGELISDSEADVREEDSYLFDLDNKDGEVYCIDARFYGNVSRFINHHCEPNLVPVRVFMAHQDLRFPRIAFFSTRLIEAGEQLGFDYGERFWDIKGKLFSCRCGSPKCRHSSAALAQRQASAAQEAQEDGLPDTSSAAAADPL
Assay: EHMT1 enzyme assay on peptide substrate (EHMT1 PEP)
Format: biochemical
Details: Table VI; read-out: EHMT1 PEP IC50

For COc1cc2c(C)cc(N3CCCCC3)nc2cc1OCCCN1CCCC1 [Compound 810], which IC50 is on record?
Its IC50 is less than 0.1 µM.

COc1cc2c(C)nc(N3CCCCC3)nc2cc1OCCCN1CCCC1 [Compound 811] was tested. Which IC50 did it give?
Its IC50 is greater than 10 µM.

With COc1cc2c(C3CCN(C)CC3)cc(N3CCCCC3)nc2cc1OCCCN1CCCC1 [Compound 812] as the compound, how does the IC50 read?
The IC50 was less than 0.1 µM.

CNc1cc(C)nc(Nc2ccc(OC)c(CN[C@H]3CCNC3)c2)n1 [Compound 813] was tested. Which IC50 did it give?
Its IC50 is 0.1 to 1 µM.

Which IC50 does the source give for CNc1cc(C)nc(Nc2ccc(OC)c(CN[C@@H]3CCNC3)c2)c1 [Compound 814] here?
Its IC50 is 1 to 10 µM.

How did the IC50 turn out when CNc1cc(C2CCCCC2)c2cc(OC)c(OCCCN3CCCC3)cc2n1 [Compound 816] was run?
The IC50 was less than 0.1 µM.

How did the IC50 turn out when CNc1cc(C(C)C)c2cc(OC)c(OCCCN3CCCC3)cc2n1 [Compound 817] was run?
The IC50 was less than 0.1 µM.

How did the IC50 turn out when COc1cc2c(C3CCOCC3)cc(=O)[nH]c2cc1OCCCN1CCCC1 [Compound 822] was run?
The IC50 was greater than 10 µM.

Which IC50 does the source give for CNc1cc(CC2CCOCC2)c2cc(OC)c(OCCCN3CCCC3)cc2n1 [Compound 823] here?
The IC50 was less than 0.1 µM.

Which IC50 does the source give for COc1cc2c(C3CCOCC3)cc(N3CCCCC3)nc2cc1OCCCN1CCCC1 [Compound 824] here?
Its IC50 is 0.1 to 1 µM.

Which IC50 does the source give for COc1cc2c(C3CCOCC3)cc(N(C)C)nc2cc1OCCCN1CCCC1 [Compound 825] here?
The IC50 was 0.1 to 1 µM.

How did the IC50 turn out when CNc1cc(C2CCN(CCC(F)(F)F)CC2)c2cc(OC)c(OCCCN3CCCC3)cc2n1 [Compound 832] was run?
Its IC50 is less than 0.1 µM.

For CNc1cc(C2CCN(CC(F)(F)F)CC2)c2cc(OC)c(OCCCN3CCCC3)cc2n1 [Compound 833], which IC50 is on record?
Its IC50 is less than 0.1 µM.

For COc1cc2c(C3CCN(C(C)=O)CC3)cc(C)nc2cc1OCCCN1CCCC1 [Compound 834], which IC50 is on record?
The IC50 was 0.1 to 1 µM.

For CCS(=O)(=O)N1CCC(c2cc(C)nc3cc(OCCCN4CCCC4)c(OC)cc23)CC1 [Compound 836], which IC50 is on record?
Its IC50 is 0.1 to 1 µM.

With COc1cc2c(C3CCN(CC(F)(F)F)CC3)cc(C)nc2cc1OCCCN1CCCC1 [Compound 837] as the compound, how does the IC50 read?
The IC50 was 0.1 to 1 µM.

With COc1cc2c(C3CCN(CCC(F)(F)F)CC3)cc(C)nc2cc1OCCCN1CCCC1 [Compound 838] as the compound, how does the IC50 read?
Its IC50 is less than 0.1 µM.

For CNc1cc(C2CCN(CCOC)CC2)c2cc(OC)c(OCCCN3CCCC3)cc2n1 [Compound 839], which IC50 is on record?
The IC50 was less than 0.1 µM.

Which IC50 does the source give for COc1cc2c(C3CCN(CC(F)(F)F)CC3)nc(C)nc2cc1OCCCN1CCCC1 [Compound 841] here?
Its IC50 is greater than 10 µM.

For CNc1cc(C)nc(Nc2ccc(OC)c(C#CC3CCNC3)c2)n1 (stereo not drawn) [Compound 845], which IC50 is on record?
Its IC50 is less than 0.1 µM.

CNc1cc(C)nc(Nc2ccc(OC)c(C#CC3CCCN3)c2)n1 (stereo not drawn) [Compound 846] was tested. Which IC50 did it give?
Its IC50 is less than 0.1 µM.

With CNc1cc(C)nc(Nc2ccc(OC)c(C#CC3CCN(C)C3)c2)n1 (stereo not drawn) [Compound 847] as the compound, how does the IC50 read?
The IC50 was less than 0.1 µM.

Which IC50 does the source give for CNc1cc(C)nc(Nc2ccc(OC)c(C#CC3CCCN3C)c2)n1 (stereo not drawn) [Compound 848] here?
Its IC50 is less than 0.1 µM.

CNC(=O)c1cc(C)nc(Nc2ccc(OC)c(OCCCN3CCCC3)c2)n1 [Compound 854] was tested. Which IC50 did it give?
The IC50 was greater than 10 µM.

For CNc1cc(C)c2cc(OC)c(C#CCN3CCCC3)cc2n1 [Compound 859], which IC50 is on record?
Its IC50 is less than 0.1 µM.

How did the IC50 turn out when CNc1cc(C)nc(Nc2ccc(OC)c(C#CCN3CCN(C)CC3)c2)n1 [Compound 860] was run?
The IC50 was greater than 10 µM.

How did the IC50 turn out when COc1cc2c(C3CCN([C@@H]4CCOC4)CC3)cc(C)nc2cc1OCCCN1CCCC1 [Compound 863] was run?
Its IC50 is less than 0.1 µM.

From US20210198277A1, “AMINE-SUBSTITUTED ARYL OR HETEROARYL COMPOUNDS” (Epizyme, Inc., priority 2016, published 2021)
